From US12723233B2, “Media and methods for differentiating natural killer cells” (STEMCELL Technologies Canada Inc., priority 2018, dated 2026)
Entries after “also recorded” stand apart in the source; their conditions may differ.

Key:
[1] = system: NK cell progenitors; assay: Differentiation of cord blood CD34+-derived NK cell progenitors to CD56+ NK cells (culture days 14-28), flow cytometry and cell counts; type: cell-based, Human
Method: Human CB samples were obtained from Bloodworks NW (Seattle, WA) and CD34^+ cells were isolated using EasySep™ Human Cord Blood CD34 Positive Selection Kit II (STEMCELL Technologies, Catalogue #17896). Obtained in this way the purity of CD34^+ cells is typically higher than 90%.
The wells of a 24-well plate were coated with StemSpan™ Lymphoid Differentiation Coating Supplement (STEMCELL Technologies, Catalogue #09925) and 5000 CD34^+ cells were plated per well. The CD34^+ cells were cultured for up to 14 days in StemSpan™ SFEM II (STEMCELL Technologies, Catalogue #09605, 09655) supplemented with Lymphoid Progenitor Expansion Supplement (STEMCELL Technologies, Catalogue #09915) with media changes every 3-4 days.
After 14 days in culture, CD34^+ cell-derived NK cell progenitors were harvested. 50,000 NK cell progenitors were plated per well of an uncoated tissue culture 24-well plate. The plated NK cell progenitors were cultured for up to two weeks in NK Cell Differentiation medium (i.e StemSpan™ SFEM II (STEMCELL Technologies, Catalog # 09605, 09655) supplemented with NK Cell Differentiation Supplement (STEMCELL Technologies, Catalogue #09950), and cultured for an additional two weeks with media changes every 3-4 days. UM729 or UM171 was added to supplemented NK Cell Differentiation Medium on days 14-28. On day 28 cells were harvested for analysis or downstream applications.
Harvested cells were stained and measured by flow cytometry for expression of the NK cell lineage marker CD56. Dead cells were excluded by light scatter profile and 7-AAD or DRAQ7 staining. The results in FIGS. 1 and 2 at condition “0” (plotted on the x-axis) indicate the frequency and yield of CD56^+ NK cells that result from experiments that follows the protocol described above but in the absence of UM171 or UM729. Cell counts were obtained using the NucleoCounter NC250. Yield was calculated by dividing the resulting cell number by the number of cells initially seeded. Yields of specific cell types were obtained by multiplying total yield by cell frequency.
Cells were cultured as described in Example 1, with the exception that the up to two week culture of NK cell progenitors (i.e. culture days 14-28) in NK Cell Differentiation medium occurred in the presence or absence of UM171 or UM729.
The effects of UM171 and UM729 were tested across a range of concentrations: 0 nM, 50 nM, 100 nM, 150 nM and 200 nM for UM171; and 0 μM, 0.25 μM, 0.5 μM, 1 μM, and 2 μM for UM729.
CD34^+ CB cells were isolated and cultured as described in Example 1 up to the day 14 time point. Day 14 NK cell progenitors were further cultured in NK Cell Differentiation medium, essentially as described in Example 1, except in the absence of an added pyrimidoindole compound but in the presence or absence of 5 μM CH223191.

[2] = reported; cited from earlier work
[3] = system: Cord blood-derived CD34+ HSPC cells; assay: UM171 added at different times of the day 0-28 NK differentiation culture, CD56 expression at day 28; type: cell-based, Human; details: analyzed at day 28
Method: (§1) […] CB cells were isolated and cultured as described in Example 1. As in Example 1 and 2 the different media were used in the day 0-14 and the day 14-28 cultures, except the day 0-14 culture medium was further supplemented with 100 nM UM171 to investigate its effect on the differentiation of CD4^+ HSPC to NK cells.
(§2) In these experiments UM171 was added to the cultures at different time points: days 0-14 (+/−); days 14-28 (−/+); or days 0-28 (+/+). Cultures without UM171 were also set up (−/−). Cells were either analyzed at day 28 for CD56 expression (FIG. 8) or at day 14 for CD7 and CD5 expression (FIG. 9).

[4] = system: CD34+ HSPC; assay: Differentiation of CD34+ HSPC into CD7+CD5+ NK cell progenitors (days 0-14), CD7 and CD5 expression at day 14; type: cell-based, Human; details: day 0-14 culture medium supplemented with 100 nM UM171, day 14
Method: as §1, §2

[5] = system: differentiated CD56+ NK cells; assay: Flow cytometry of NK cell, maturity and T cell markers on differentiated CD56+ NK cells at day 28; type: cell-based, Human; details: 100 nM UM171, day 28
Method: CD56^+ NK cells were differentiated as described in Examples 1 and 2 in the presence of 1 μM UM729 and analyzed on day 28 by flow cytometry for the expression of known NK cell markers. Cells were stained with fluorescence-conjugated antibodies against indicated NK cell markers for 15 min at 4° C. Non-specific binding was blocked using FcR blocker and 5% human or rat serum. Dead cells were excluded by light scatter profile and 7-AAD or DRAQ7 staining. Prepared samples were analyzed by flow cytometry.
CD56^+ NK cells were differentiated as described in Examples 1 and 2 in the presence of 1 μM UM729 and analyzed on day 28 by flow cytometry for the expression of known NK cell markers. The cells were stained for the markers described in this Example essentially as described in Example 3. Staining for KIR molecules was performed using a combination of two clones for the antibody, 180704 and HP-MA4, as each recognizes a distinct subset of KIR molecules. Dead cells were excluded by light scatter profile and 7-AAD or DRAQ7 staining.
Production of IFNγ by the differentiated CD56^+ NK cells was also measured. For IFNγ intracellular staining, differentiated CD56^+ NK Cells were stimulated with PMA/Ionomycin for 2 hours. Brefeldin A was added and the cells were incubated for another 2 hours. The cells were harvested and stained for CD56 and Zombie NIR viability dye then fixed, permeabilized and stained for intracellular IFNγ.
CD56^+ NK cells were differentiated as described in Examples 1 and 2 in the presence of pyrimidoindole compounds and analyzed on day 28 by flow cytometry for the expression of a T cell marker. The analyzed cells were stained for CD3 essentially as described in Example 3. Dead cells were excluded by light scatter profile and 7-AAD or DRAQ7 staining.

[6] = 5 μM CH223191, no added pyrimidoindole compound, day 14 NK cell progenitors
[7] = 100 nM UM171 between days 0-14 (+/−)
[8] = 100 nM UM171 between days 14-28 (−/+)
[9] = 100 nM UM171, normalized to STD cultures, n=15
[10] = tested 0, 50, 100, 150, 200 nM, days 14-28

Structure (SMILES)	CD56+ NK cell frequency compared to absence of CH223191 [1, 6]	CD56+ NK cell yield compared to absence of CH223191 [1, 6]	Potency relative to UM729 [2]	CD56+ cell frequency compared to cultures lacking UM171 on days 0-14 (−/−) [3, 7]	CD56+ cell yield compared to cultures lacking UM171 on days 0-14 (−/−) [3, 7]	NK cell frequency compared to cultures lacking UM171 (−/−) [3, 8]	NK cell yield compared to cultures lacking UM171 (−/−) [3, 8]	Effect of inclusion of UM171 during days 14-28 on CD56+ NK cell frequency and yield in the (+/+) condition ([3]; 100 nM UM171 days 0-28 (+/+))	Frequency of CD7+CD5+ NK cell progenitors compared to cultures not supplemented with UM171 [4]	Yield of CD7+CD5+ NK cell progenitors compared to cultures not supplemented with UM171 [4]	Expression of CD3 among differentiated cells ([5]; cord blood sample of a first donor)	Expression of CD3 among differentiated cells ([5]; cord blood sample of a second donor)	Frequency of CD56+ NK cells compared to cultures lacking UM171 ([1]; 100 nM UM171, 14 days culture of NK cell progenitors, paired t-test p=0.013)	Increase of average frequency of NK cells compared to culture conditions not including a pyrimidoindole compound [1, 9]	Increase of average yield of NK cells compared to culture conditions not including a pyrimidoindole compound [1, 9] [fold]	Concentration at which frequency of CD56+ NK cells appeared to be highest [1, 10] [nM]	Concentration at which yield of CD56+ NK cells appeared to be highest [1, 10] [nM]
Cc1ccccc1N=Nc1ccc(NC(=O)c2ccnn2C)c(C)c1 [CH223191]	decreased	decreased															
Cn1nnc(-c2ccc3c(c2)[nH]c2nc(Cc4ccccc4)nc(N[C@H]4CC[C@H](N)CC4)c23)n1 [UM171, (1r,4r)-N^1-(2-benzyl-7-(2-methyl-2H-tetrazol-5-yl)-9H-pyrimido[4,5-13]indol-4-yl)cyclohexane-1,4-diamine]			approximately 10 ×	lower	lower	increase	increase	can compensate for the effects of this compound on day 0-14 cultures	clear reduction	clear reduction	virtually absent; also recorded: do not express CD3	virtually absent; also recorded: do not express CD3	increased significantly	~ 30%	2	100	100
